Source: patent publication US9113629B2, “4-amino-6-(4-substituted-phenyl)-picolinates and 6-amino-2-(4-substituted-phenyl)-pyrimidine-4-carboxylates and their use as herbicides” (DOW AGROSCIENCES LLC, priority 2013, dated 2015)

Columns and labels:
Format in all cases: in vivo
[1] = tested on: AMARE: redroot pigwseed (Amaranthus retroflexus); experiment: Pre-emergent Test I herbicidal activity; conditions: pre-emergence, 336 h, 2.32 kg ai/ha, read-out: Visual Growth Reduction (%) 14 Days After Application, AMARE
Description: (§1) Pre-emergent Test I Seeds of test species were planted into round plastic pots (5-inch diameter) containing sandy loam soil. After planting, all pots were sub-irrigated 16 h prior to compound application. Compounds were dissolved in a 97:3 v/v (volume/volume) mixture of acetone and dimethyl sulfoxide (DMSO) and diluted to the appropriate concentration in a final application solution containing water, acetone, isopropanol, DMSO and Agri-dex (crop oil concentrate) in a 59:23:15:1.0:1.5 v/v ratio and 0.02% w/v (weight/volume) of Triton X-155 to obtain the spray solution containing the highest application rate. Additional application rates were obtained by serial dilution of the high rate solution with the above application solution. Formulated compound (2.7 mL) was applied pipetted evenly over the soil surface followed by incorporation with water (15 mL). Following treatment, pots were returned to the greenhouse for the duration of the experiment. The greenhouse was programmed for an approximate 15 h photoperiod which was maintained at about 23-29° C. during the day and 22-28° C. during the night. Nutrients and water were added on a regular basis through surface irrigation and supplemental lighting was provided with overhead metal halide 1000-Watt lamps as necessary. Herbicidal effect ratings were obtained 14 days after treatment. All evaluations were made relative to appropriate controls on a scale of 0 to 100 where 0 represents no herbicidal effect and 100 represents plant death or lack of emergence from the soil.

[2] = tested on: IPOHE: ivyleaf morningglory (Ipomoea hederecea); experiment: Pre-emergent Test I herbicidal activity; conditions: pre-emergence, 336 h, read-out: Visual Growth Reduction (%) 14 Days After Application, IPOHE
Description: as §1

LAMSS = experiment: Post-emergent Test III, herbicidal activity in wheat and barley; conditions: for pest or weed control at 35 g/ha / pest or weed control at 70 g/ha / pest or weed control at 140 g/ha: post-emergence, 504 h, read-out: Visual Growth Reduction (%) 21 Days After Application LAMSS; for pest or weed control at 35 g/ha: 35 g ai/ha; for pest or weed control at 70 g/ha: 70 g ai/ha; for pest or weed control at 140 g/ha: 140 g ai/ha; for GR50 LAMSS / GR80 LAMSS: probit analysis, 21 days after application; for GR50 LAMSS: dose for growth reduction of 50 percent; for GR80 LAMSS: dose for growth reduction of 80 percent
Procedure, shortened: (§2)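 Plants at the second to third true-leaf stage, grown in a greenhouse at about 18/17 °C with a 14 h photoperiod, were sprayed post-emergence at 187 L/ha with the high rate and ½× to 1/16× serial dilutions in an acetone/DMSO/crop-oil/surfactant carrier. Injury was rated visually at 21 d on a 0–100% scale, and GR20–GR90 were derived by probit analysis.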

[3] = tested on: VERPE: bird's-eye speedwell (veronica persica); experiment: as above
Procedure, shortened: as §2

[4] = tested on: ALOMY: black-grass (Alopecurus myosuroides); experiment: as above; conditions: for pest or weed control at 35 g/ha / pest or weed control at 70 g/ha / pest or weed control at 140 g/ha: Alopecurus myosuroides, post-emergence, 504 h, read-out: Visual Growth Reduction (%) 21 Days After Application ALOMY; for pest or weed control at 35 g/ha: 35 g ai/ha; for pest or weed control at 70 g/ha: 70 g ai/ha; for pest or weed control at 140 g/ha: 140 g ai/ha; for GR50 ALOMY / GR80 ALOMY: probit analysis, 21 days after application; for GR50 ALOMY: dose for growth reduction of 50 percent; for GR80 ALOMY: dose for growth reduction of 80 percent
Procedure, shortened: as §2

[5] = tested on: PAPRH: common poppy (Papaver rhoeas); experiment: as above
Procedure, shortened: as §2

[6] = tested on: BROTE: downy brome (Bromus tectorum); experiment: as above; conditions: for pest or weed control at 35 g/ha / pest or weed control at 70 g/ha / pest or weed control at 140 g/ha: Bromus tectorum, post-emergence, 504 h, read-out: Visual Growth Reduction (%) 21 Days After Application BROTE; for pest or weed control at 35 g/ha: 35 g ai/ha; for pest or weed control at 70 g/ha: 70 g ai/ha; for pest or weed control at 140 g/ha: 140 g ai/ha; for GR50 BROTE / GR80 BROTE: probit analysis, 21 days after application; for GR50 BROTE: dose for growth reduction of 50 percent; for GR80 BROTE: dose for growth reduction of 80 percent
Procedure, shortened: as §2

[7] = tested on: SETFA: giant foxtail (Setaria faberi); experiment: Pre-emergent Test I herbicidal activity; conditions: pre-emergence, 336 h, read-out: Visual Growth Reduction (%) 14 Days After Application, SETFA
Description: as §1

[8] = probit analysis, dose for growth reduction of 50 percent, 21 days after application
[9] = probit analysis, dose for growth reduction of 80 percent, 21 days after application

Row | SMILES | pest or weed control at 35 g/ha (LAMSS) | pest or weed control at 70 g/ha (LAMSS) | pest or weed control at 140 g/ha (LAMSS) | GR50 LAMSS (LAMSS) | GR80 LAMSS (LAMSS) | pest or weed control at 35 g/ha [4] | pest or weed control at 70 g/ha [4] | pest or weed control at 140 g/ha [4] | GR50 ALOMY [4] | GR80 ALOMY [4] | pest or weed control at 35 g/ha [6] | pest or weed control at 70 g/ha [6] | pest or weed control at 140 g/ha [6] | GR50 BROTE [6] | GR80 BROTE [6] | other results
1 | COC(=O)c1nc(-c2ccc(I)cc2)c(F)c(N)c1Cl [Compound 118, Methyl 4-amino-6-(4-iodophenyl)-3-chloro-5-fluoropicolinate] | 95 to 100% | 95 to 100% | 95 to 100% | 1 g ai/ha | 0 g ai/ha | 60 to 74% | 75 to 84% | 85 to 94% | 25 g ai/ha | 60 g ai/ha | 60 to 74% | 85 to 94% | 85 to 94% | 31 g ai/ha | 64 g ai/ha | pest or weed control at 2320 g/ha [1]: 95 to 100%; pest or weed control at 2320 g/ha ([2]; 2.32 kg ai/ha): 95 to 100%; pest or weed control at 35 g/ha ([3]; Veronica persica, post-emergence, 504 h, 35 g ai/ha, read-out: Visual Growth Reduction (%) 21 Days After Application VERPE): 85 to 94%; pest or weed control at 70 g/ha ([3]; Veronica persica, post-emergence, 504 h, 70 g ai/ha, read-out: Visual Growth Reduction (%) 21 Days After Application VERPE): 85 to 94%; pest or weed control at 140 g/ha ([3]; Veronica persica, post-emergence, 504 h, 140 g ai/ha, read-out: Visual Growth Reduction (%) 21 Days After Application VERPE): 95 to 100%; GR50 VERPE [3, 8]: 5 g ai/ha; GR80 VERPE [3, 9]: 17 g ai/ha; pest or weed control at 35 g/ha ([5]; Papaver rhoeas, post-emergence, 504 h, 35 g ai/ha, read-out: Visual Growth Reduction (%) 21 Days After Application PAPRH): 95 to 100%; pest or weed control at 70 g/ha ([5]; Papaver rhoeas, post-emergence, 504 h, 70 g ai/ha, read-out: Visual Growth Reduction (%) 21 Days After Application PAPRH): 95 to 100%; pest or weed control at 140 g/ha ([5]; Papaver rhoeas, post-emergence, 504 h, 140 g ai/ha, read-out: Visual Growth Reduction (%) 21 Days After Application PAPRH): 95 to 100%; GR50 PAPRH [5, 8]: 1 g ai/ha; GR80 PAPRH [5, 9]: 1 g ai/ha
2 | Nc1c(F)c(-c2ccc(Br)c(F)c2F)nc(C(=O)O)c1Cl [Compound 147] | 85 to 94% | 85 to 94% | 85 to 94% | 1 g ai/ha | 8 g ai/ha | 60 to 74% | 85 to 94% | 85 to 94% | 20 g ai/ha | 47 g ai/ha | 75 to 84% | 85 to 94% | 85 to 94% | 6 g ai/ha | 28 g ai/ha | pest or weed control at 3960 g/ha ([2]; 3.96 kg ai/ha): 95 to 100%; pest or weed control at 3960 g/ha ([7]; 3.96 kg ai/ha): 95 to 100%
3 | C=Cc1c(C(=O)O)nc(-c2ccc(Cl)c(F)c2)c(F)c1N [Compound 214] | 75 to 84% | 75 to 84% | 85 to 94% | 12 g ai/ha | 33 g ai/ha | 30 to 44% | 45 to 59% | 30 to 44% | 95 g ai/ha | >140 g ai/ha | 0 to 29% | 0 to 29% | 0 to 29% | >140 g ai/ha | >140 g ai/ha | pest or weed control at 4040 g/ha ([2]; 4.04 kg ai/ha): 95 to 100%; pest or weed control at 4040 g/ha ([7]; 4.04 kg ai/ha): 95 to 100%
